Source: patent publication US10472341B2, “Bicyclic tetrahydrothiazepine derivatives useful for the treatment of neoplastic and/or infectious diseases” (APEIRON BIOLOGICS AG, priority 2015, dated 2019)
Read-outs that look alike come from different tables or passages of the source.

Columns and labels:
[1] = tested on: aCD3/aCD28-stimulated human CD4+-T-cells; test: IL-2 production and activation markers in aCD3/aCD28 stimulated isolated human CD4+-T-cells; assay type: cell-based; settings: IL-2 production at 3 μM compound
Procedure, shortened: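 CD4+ T cells isolated from buffy-coat PBMCs by microbeads were plated in Xvivo medium (1.5*10^5 cells/well) and stimulated with anti-CD3/28 mAbs plus compound. IL-2 measured by ELISA in supernatants at 24 h or 48 h; CD25 and proliferation by flow cytometry, CD69 at 24 h. Activity classes based on IL-2 at 3 μM compound.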

[2] = tested on: aCD3/aCD28-stimulated human PBMCs; test: Cytokine production in aCD3/aCD28 stimulated human PBMCs; assay type: cell-based; settings: PBMC, 18 h
Procedure, shortened: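 Compound effects measured in buffy-coat PBMCs activated 18 h at 37° C by 1 μg/mL each of soluble anti-CD3 (OKT3) and anti-CD28 (28.2), 1e6 cells/mL. Cytokines in harvested supernatants read by MSD or HTRF.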

[3] = enhancement of IFN-γ production, read-out: Activity Class IFN-γ
[4] = enhancement of IL-2 production, read-out: Activity Class IL-2

CC(C)NC(=O)c1ccc2c(c1)N(Cc1ccc(Cl)c(Cl)c1)C(=O)[C@@H](N)CS2(=O)=O.Cl [Example 88, (3R)-3-amino-5-[(3,4-dichlorophenyl)methyl]-1,1,4-trioxo-N-(propan-2-yl)-2,3,4,5-tetrahydro-1λ^6,5-benzothiazepine-7-carboxamide hydrochloride]
Activity Class CD4+ [1]: C (IL-2 production at 3 μM compound concentration between 2-fold increase as compared to mean IL-2 production of stimulated cells in the absence of compounds and <2 ng/mL) | EC50 [2, 3]: 1580 to 5010 nM | EC50 [2, 4]: > 5010 nM

CC(C)NC(=O)c1ccc2c(c1)N(Cc1ccc(Cl)c(F)c1)C(=O)[C@@H](N)CS2(=O)=O.Cl [Example 89, (3R)-3-amino-5-[(4-chloro-3-fluorophenyl)methyl]-1,1,4-trioxo-N-(propan-2-yl)-2,3,4,5-tetrahydro-1λ^6,5-benzothiazepine-7-carboxamide hydrochloride]
Activity Class CD4+ [1]: C (IL-2 production at 3 μM compound concentration between 2-fold increase as compared to mean IL-2 production of stimulated cells in the absence of compounds and <2 ng/mL) | EC50 [2, 3]: 1580 to 5010 nM | EC50 [2, 4]: > 5010 nM

Cl.N[C@H]1CS(=O)(=O)c2cc(F)c(C(=O)NCC(F)(F)F)cc2N(Cc2ccc(Cl)cc2)C1=O [Example 92, (3R)-3-amino-5-[(4-chlorophenyl)methyl]-8-fluoro-1,1,4-trioxo-N-(2,2,2-trifluoro-ethyl)-2,3,4,5-tetrahydro-1λ^6,5-benzothiazepine-7-carboxamide hydrochloride]
Activity Class CD4+ [1]: B (IL-2 production at 3 μM compound concentration between 2-10 ng/mL) | EC50 [2, 3]: 1580 to 5010 nM | EC50 [2, 4]: 1580 to 5010 nM

Cl.N[C@H]1CS(=O)(=O)c2cc(F)c(C(=O)NCCC(F)(F)F)cc2N(Cc2ccc(Cl)cc2)C1=O [Example 93, (3R)-3-amino-5-[(4-chlorophenyl)methyl]-8-fluoro-1,1,4-trioxo-N-(3,3,3-trifluoro-propyl)-2,3,4,5-tetrahydro-1λ^6,5-benzothiazepine-7-carboxamide hydrochloride]
Activity Class CD4+ [1]: A (IL-2 production at 3 μM compound concentration >10 ng/mL) | EC50 [2, 3]: 1580 to 5010 nM | EC50 [2, 4]: < 1580 nM

C[C@H](NC(=O)c1cc2c(cc1F)S(=O)(=O)C[C@H](N)C(=O)N2Cc1ccc(Cl)cc1)C(F)(F)F.Cl [Example 94, (3R)-3-amino-5-[(4-chlorophenyl)methyl]-8-fluoro-1,1,4-trioxo-N-[(2S)-1,1,1-trifluoropropan-2-yl]-2,3,4,5-tetrahydro-1λ^6,5-benzothiazepine-7-carboxamide hydrochloride]
Activity Class CD4+ [1]: C (IL-2 production at 3 μM compound concentration between 2-fold increase as compared to mean IL-2 production of stimulated cells in the absence of compounds and <2 ng/mL) | EC50 [2, 3]: 1580 to 5010 nM | EC50 [2, 4]: > 5010 nM

CCC(C)NC(=O)c1cc2c(cc1F)S(=O)(=O)C[C@H](N)C(=O)N2Cc1ccc(Cl)cc1.Cl (stereo partly drawn) [Example 95, (3R)-3-amino-N-(butan-2-yl)-5-[(4-chlorophenyl)methyl]-8-fluoro-1,1,4-trioxo-2,3,4,5-tetrahydro-1λ^6,5-benzothiazepine-7-carboxamide hydrochloride]
Activity Class CD4+ [1]: B (IL-2 production at 3 μM compound concentration between 2-10 ng/mL) | EC50 [2, 3]: < 1580 nM | EC50 [2, 4]: 1580 to 5010 nM

CC(C)(C)NC(=O)c1cc2c(cc1F)S(=O)(=O)C[C@H](N)C(=O)N2Cc1ccc(Cl)cc1.Cl [Example 96, (3R)-3-amino-N-tert-butyl-5-[(4-chlorophenyl)methyl]-8-fluoro-1,1,4-trioxo-2,3,4,5-tetrahydro-1λ^6,5-benzothiazepine-7-carboxamide hydrochloride]
Activity Class CD4+ [1]: A (IL-2 production at 3 μM compound concentration >10 ng/mL) | EC50 [2, 3]: < 1580 nM | EC50 [2, 4]: < 1580 nM
